Measurements as given in patent US20230414775A1, “TUBULYSINS AND PROTEIN-TUBULYSIN CONJUGATES” (priority 2021, published 2023).
Read-outs that look alike come from different tables or passages of the source.

Tests used:
[1] = test system: HCT15 cells; assay: HCT15 anti-proliferation / cell killing assay (CellTiter-Glo), with or without verapamil; format: cell-based, human; conditions: for IC50: Homo sapiens
Protocol: The cell line used in the anti-proliferation assays was HCT15, a human colon, colorectal carcinoma cell line. The HCT15 cells were grown in RPMI medium 1640+10% FBS. To run the assay, the cells (40 μL, 400 cells) were added to each well in a 384-well plate and incubated for twenty-four hours at 37° C. with 5% CO2. One hour before adding compounds, freshly dilute Verapamil to 0.2 mg/ml in ddH2O. Add 1 μL/well diluted Verapamil to Verapamil treatment wells and 1 μL/well ddH2O to the non-Verapamil treatment wells. Return plates to the incubator at 37° C. with 5% CO2. Then the cells were treated with test compounds at various concentrations using HPD300, and then normalize the DMSO to 0.5%. The control wells contained cells and the medium but lack the test compounds. The plates were incubated for 120 hours at 37° C. with 5% CO2. CTG reagent was then added to the wells (25 μL). After the plates were shaken for 10 min and then incubated for 10 min at room temperature, paste the clear bottom with white back seal and record luminescence with Envision. The inhibition % was calculated according to the following equation: inhibition %=[1−(assay-blank)/(control-blank)]×100.

[2] = Plasma stability test of payloads (LC-MS/MS, half-life); format: in vitro ADME; conditions: human plasma, 37° C., time points 0-24 h, read-out: Human plasma stability T1/2 (converted)
Protocol: Stock solutions were prepared at 10 mM in DMSO for the test compound. Aliquots of the stock solutions were diluted to 0.02 mM in 0.05 M sodium phosphate buffer containing 0.5% BSA as the dosing solution. Then 10 μL of the dosing solutions were dosed into 90 μL of pre-warmed plasma (37° C.) in singlet (n=1) in 96-well assay plates to reach a final test concentration of 2 μM. The plates were kept in a 37° C. water bath for the duration of the experiment. At each time point (0, 0.25, 1, 8, 24 h), 400 μL of acetonitrile (containing internal standard) was added into corresponding wells of the assay plates. After the final time point was quenched, the assay plates were shaken on a vibrator (IKA, MTS 2/4) for 10 min (600 rpm/min) and then centrifuged at 5594 g for 15 min (Thermo Multifuge×3R). Aliquots of the supernatant were taken and analyzed by LC-MS/MS. The peak area response ratio to internal standard (PARR) of the compounds at 0.25, 1, 8, and 24 h was compared to the PARR at time zero to determine the percent of test compound remaining at each time point. Half-lives (ti/2) were calculated using Excel software, fitting to a single-phase exponential decay equation.

[3] = test system: SK-BR-3 cells; assay: SK-BR-3 anti-proliferation assay for payloads (CellTiter-Glo); format: cell-based; conditions: Homo sapiens, free payload, 120-144 h, read-out: SKBR3
Protocol: The cell line used in the anti-proliferation assays was SK-BR-3, a human breast, adenocarcinoma (pleural effusion) cell line. The cells were grown in McCoy's 5a Medium+10% FBS. To run the assay for payloads, the cells (40 μL, 700 cells) were added to each well in a 384-well plate and incubated for 24 hours at 37° C. with 5% CO2. Then the cells were treated with test compounds at various concentrations using HPD300, and then normalize the DMSO to 0.5%. The control wells contain cells and the medium but lack the test compounds. The plates were incubated for 120 h at 37° C. with 5% CO2. To run the assay for ADCs and some key payloads, the cells (80 μL, 1000 cells) were added to each well in a 96-well plate and incubated for twenty-four hours at 37° C. with 5% CO2. Next, the ADCs or payloads were diluted with Opti-Mem with 0.1% BSA. The cells were treated with test compounds or ADCs (20 μL) at various concentrations in appropriate cell culture medium (total volume, 0.1 mL). The final concentration of DMSO was adjusted to 0.2% and the Opti-Mem with 0.1% BSA was adjusted to 5%. The control wells contained cells and the medium but lacked the test compounds. The plates were incubated for 144 h at 37° C. with 5% CO2. CTG reagent was then added to the wells (25 μL/384-well or 100 μL/96-well). After the plates were shaken for 10 min and then incubated for 10 min at room temperature, paste the clear bottom with white back seal and record luminescence with Envision. The inhibition % was calculated according to the following equation: inhibition %=[1-(assay-blank)/(control-blank)]×100.

[4] = HCT15 cells, no verapamil, 120 h (5 days), read-out: HCT-15
[5] = HCT-15, HCT15 cells pre-treated with verapamil, 120 h, read-out: HCT-15 with verapamil

Structure (SMILES)	HCT-15 with verapamil (nM) ([1]; HCT15 cells pre-treated with verapamil, 120 h)	IC50 [1, 4]	half-life at 2 μM [2]	IC50 [3]	IC50 [1, 5]
CCCCCCN(C(=O)[C@@H](NC(=O)[C@H]1CCCCN1C)[C@@H](C)CC)[C@H](C[C@@H](OCCCO)c1nc(C(=O)N[C@@H](Cc2ccc(N)c(F)c2)CC(C)(C)C(=O)O)cs1)C(C)C (mixture of isomers) [PA22, Rac-(R)-5-(4-amino-3-fluorophenyl)-4-(2-((1S,3S)-3-((2R,3R)—N-hexyl-3-methyl-2-((S)-1-methylpiperidine-2-carboxamido)pentanamido)-1-(3-hydroxypropoxy)-4-methylpentyl)thiazole-4-carboxamido)-2,2-dimethylpentanoic acid]	Not reach	0.532 nM	63.5 h	0.044 nM	–
CCCCCCN(C(=O)[C@@H](NC(=O)[C@H]1CCCCN1C)[C@@H](C)CC)[C@H](C[C@@H](OC(C)=O)c1nc(C(=O)N[C@@H](Cc2ccc(NCC(=O)O)cc2)CC(C)(C)C(=O)O)cs1)C(C)C (racemic) [PA16, Rac-(R)-4-(2-((1S,3S)-1-acetoxy-3-((2R,3R)—N-hexyl-3-methyl-2-((S)-1-methylpiperidine-2-carboxamido)pentanamido)-4-methylpentyl)thiazole-4-carboxamido)-acid]	–	0.062 nM	327 h	0.019 nM	0.033 nM
CCCCCCN(C(=O)[C@@H](NC(=O)[C@H]1CCCCN1CCO)[C@@H](C)CC)[C@H](C[C@@H](OCC)c1nc(C(=O)N[C@@H](Cc2ccc(N)cc2)CC(C)(C)C(=O)O)cs1)C(C)C [PA13, (S)-5-(4-aminophenyl)-4-(2-((1R,3R)-1-ethoxy-3-((2S,3S)—N-hexyl-2-((R)-1-(2-hydroxyethyl)piperidine-2-carboxamido)-3-methylpentanamido)-4-methylpentyl)thiazole-4-carboxamido)-2,2-dimethylpentanoic acid]	–	1.31 nM	313 h	0.288 nM	0.284 nM
CCCCCCN(C(=O)[C@@H](NC(=O)[C@H]1CCCCN1C)[C@@H](C)CC)[C@H](C[C@@H](OC(=O)NCCO)c1nc(C(=O)N[C@@H](Cc2ccc(N)c(F)c2)CC(C)(C)C(=O)O)cs1)C(C)C (mixture of isomers) [PA24, (S)-5-(4-amino-3-fluorophenyl)-4-(2-((3RS,6SR,8SR)-3-((RS)-sec-butyl)-5-hexyl-13-hydroxy-6-isopropyl-1-((R)-1-methylpiperidin-2-yl)-1,4,10-trioxo-9-oxa-2,5,11-triazatridecan-8-yl)thiazole-4-carboxamido)-2,2-dimethylpentanoic acid]	–	0.944 nM	43.4 h	0.135 nM	0.255 nM
CCCCCCN(C(=O)[C@@H](NC(=O)[C@H]1CCCCN1)[C@@H](C)CC)[C@H](C[C@@H](OC(C)=O)c1nc(C(=O)N[C@@H](Cc2ccc(NCC(=O)O)cc2)CC(C)(C)C(=O)O)cs1)C(C)C (mixture of isomers) [PA17, Rac-(R)-4-(2-((1S,3S)-1-acetoxy-3-((2R,3R)—N-hexyl-3-methyl-2-((S)-piperidine-2-carboxamido)pentanamido)-4-methylpentyl)thiazole-4-carboxamido)-5-(4-((carboxymethyl)amino)phenyl)-2,2-dimethylpentanoic acid]	–	1.39 nM	–	0.131 nM	0.09 nM
CCCCCCN(C(=O)[C@@H](NC(=O)[C@H]1CCCCN1C)[C@@H](C)CC)[C@H](C[C@@H](OC(C)=O)c1nc(C(=O)N[C@@H](Cc2ccc(N(CCO)C(=O)CN)cc2)CC(C)(C)C(=O)O)cs1)C(C)C (racemic) [PA19, Rac-(R)-4-(2-((1S,3S)-1-acetoxy-3-((2R,3R)—N-hexyl-3-methyl-2-((S)-1-methylpiperidine-2-carboxamido)pentanamido)-4-methylpentyl)thiazole-4-carboxamido)-acid]	–	10.8 nM	–	1.84 nM	1.8 nM
